Patent US20140080869A1, “Methods for Treating HCV” (priority 2012, published 2014)
Like-named read-outs stand apart in the source and are kept apart here.

Experiments:
[1] = test system: HCV replicon with NS5A genotype 6a T58N variant; experiment: Transient chimeric replicon assay, genotype 6a T58N; type: cell-based
Excerpt: (§1) Transiently replicating chimeric replicons containing NS5A from genotype 2-6 wild types or replicons containing variants within NS5A were constructed in the 1b-Con1 background. These replicons also contained a firefly luciferase reporter gene. Variants were introduced by site-directed mutagenesis using the Change-IT Multiple Mutation Site Directed Mutagenesis Kit (USB). After the mutagenesis was confirmed by sequence analysis, the plasmids were linearized with ScaI restriction enzyme. The TranscriptAid T7 High Yield Transcription Kit (Fermentas) was used to transcribe the HCV subgenomic RNA from the plasmids. The RNA was transfected via electroporation into a Huh-7 derived cell line as described (see Middleton et al. and Tripathi et al., supra) except that 3×10^6 cells were electroporated with 15 μg of template RNA and the 96 well plate was seeded with 7.5×10^3 cells per well. Four hours post-transfection, the wells from one plate were harvested for luciferase measurement. […] Luciferin solution (50 μl, Promega) was added to each well, and luciferase activity was measured with a Victor II luminometer (Perkin-Elmer). The percent inhibition of HCV RNA replication was calculated for each compound concentration and the EC50 value was calculated using nonlinear regression curve fitting to the 4-parameter logistic equation and GraphPad Prism 4 software.

[2] = test system: HCV replicon with NS5A from genotype 2a; conditions: read-out: Mean EC50 ± Std. Dev.
[3] = test system: HCV replicon with NS5A genotype 3a Y93H variant; experiment: Transient chimeric replicon assay, genotype 3a Y93H; type: cell-based; conditions: Hepatitis C virus
Excerpt: as §1

[4] = test system: HCV genotype 1b-Con1 stable subgenomic replicon; conditions: read-out: Mean EC50 ± Std. Dev.
[5] = test system: HCV replicon with NS5A from genotype 2a; experiment: microbe, parasite or virus in culture; conditions: Hepatitis C virus, read-out: Mean EC50 ± Std. Dev.
[6] = test system: HCV replicon with NS5A genotype 5a L31V variant; experiment: Transient chimeric replicon assay, genotype 5a L31V; type: cell-based; conditions: Hepatitis C virus
Excerpt: as §1

[7] = test system: HCV genotype 1b-Con1 stable subgenomic replicon; experiment: microbe, parasite or virus in culture; conditions: Hepatitis C virus, read-out: Mean EC50 ± Std. Dev.
[8] = test system: HCV replicon with NS5A from genotype 6a; experiment: microbe, parasite or virus in culture; conditions: Hepatitis C virus, read-out: Mean EC50 ± Std. Dev.
[9] = test system: HCV replicon with NS5A genotype 6a wild type; experiment: microbe, parasite or virus in culture; type: cell-based; conditions: Hepatitis C virus, read-out: Average EC50
Excerpt: (§2) Transiently replicating chimeric replicons containing NS5A from genotype 2-6 wild types or replicons containing variants within NS5A were constructed in the 1b-Con1 background. These replicons also contained a firefly luciferase reporter gene. Variants were introduced by site-directed mutagenesis using the Change-IT Multiple Mutation Site Directed Mutagenesis Kit (USB). After the mutagenesis was confirmed by sequence analysis, the plasmids were linearized with ScaI restriction enzyme. The TranscriptAid T7 High Yield Transcription Kit (Fermentas) was used to transcribe the HCV subgenomic RNA from the plasmids. The RNA was transfected via electroporation into a Huh-7 derived cell line as described (see Middleton et al. and Tripathi et al., supra) except that 3×10^6 cells were electroporated with 15 μg of template RNA and the 96 well plate was seeded with 7.5×10^3 cells per well. Four hours post-transfection, the wells from one plate were harvested for luciferase measurement. This plate provided a measure of the amount of translatable input RNA, and therefore transfection efficiency. To the wells of the remaining plates, a half-log dilution series of the test compound in culture medium (0.5% DMSO final concentration) was added, and plates were incubated at 37° C., 5% CO2 in a humidified incubator for 4 days. After this period, the media was removed and the plates were washed with 100 μl phosphate-buffered saline per well. Luciferin solution (50 μl, Promega) was added to each well, and luciferase activity was measured with a Victor II luminometer (Perkin-Elmer). The percent inhibition of HCV RNA replication was calculated for each compound concentration and the EC50 value was calculated using nonlinear regression curve fitting to the 4-parameter logistic equation and GraphPad Prism 4 software.

[10] = test system: HCV replicon with NS5A genotype 2a wild type; experiment: microbe, parasite or virus in culture; type: cell-based; conditions: Hepatitis C virus, read-out: Average EC50
Excerpt: as §2

[11] = test system: HCV replicon with NS5A genotype 3a wild type; experiment: microbe, parasite or virus in culture; type: cell-based; conditions: Hepatitis C virus, read-out: Average EC50
Excerpt: as §2

[12] = test system: HCV replicon with NS5A genotype 2b wild type; experiment: Transient chimeric replicon assay, genotype 2b WT; type: cell-based; conditions: Hepatitis C virus
Excerpt: as §1

[13] = test system: HCV replicon with NS5A from genotype 2b; conditions: read-out: Mean EC50 ± Std. Dev.
[14] = test system: HCV replicon with NS5A genotype 2a T24A variant; experiment: Transient chimeric replicon assay, genotype 2a T24A; type: cell-based
Excerpt: as §1

[15] = test system: HCV replicon with NS5A from genotype 2b; experiment: microbe, parasite or virus in culture; conditions: Hepatitis C virus, read-out: Mean EC50 ± Std. Dev.
[16] = test system: HCV replicon with NS5A genotype 5a L31F variant; experiment: Transient chimeric replicon assay, genotype 5a L31F; type: cell-based
Excerpt: as §1

[17] = test system: HCV replicon with NS5A genotype 2b L31V variant; experiment: Transient chimeric replicon assay, genotype 2b L31V; type: cell-based
Excerpt: as §1

[18] = test system: HCV replicon with NS5A genotype 6a T58A variant; experiment: Transient chimeric replicon assay, genotype 6a T58A; type: cell-based
Excerpt: as §1

[19] = test system: HCV replicon with NS5A genotype 3a M28T variant; experiment: Transient chimeric replicon assay, genotype 3a M28T; type: cell-based
Excerpt: as §1

[20] = test system: HCV replicon with NS5A from genotype 3a; conditions: read-out: Mean EC50 ± Std. Dev.
[21] = test system: HCV replicon with NS5A from genotype 6a; conditions: read-out: Mean EC50 ± Std. Dev.
[22] = test system: HCV replicon with NS5A genotype 5a wild type; experiment: Transient chimeric replicon assay, genotype 5a WT; type: cell-based; conditions: Hepatitis C virus
Excerpt: as §1

[23] = test system: HCV replicon with NS5A from genotype 3a; experiment: microbe, parasite or virus in culture; conditions: Hepatitis C virus, read-out: Mean EC50 ± Std. Dev.

Compound: COC(=O)N[C@H](C(=O)N1CCC[C@H]1c1nc2cc([C@H]3CC[C@H](c4ccc5[nH]c([C@@H]6CCCN6C(=O)[C@@H](NC(=O)OC)C(C)C)nc5c4)N3c3cc(F)c(N4CCC(c5ccccc5)CC4)c(F)c3)ccc2[nH]1)C(C)C [Compound 1, methyl {(2S)-1-[(2S)-2-{5-[(2R,5R)-1-[3,5-difluoro-4-(4-phenylpiperidin-1-yl)phenyl]-5-{2-[(2S)-1-{(2S)-2-[(methoxycarbonyl)amino]-3-methylbutanoyl}pyrrolidin-2-yl]-1H-benzimidazol-5-yl}pyrrolidin-2-yl]-1H-benzimidazol-2-yl}pyrrolidin-1-yl]-3-methyl-1-oxobutan-2-yl}carbamate]
- EC50 [1]: 3.2 pM
- EC50 ([1]; Hepatitis C virus): < 5 pM
- EC50 [2]: 9 ± 4.6 pM
- EC50 [3]: 273 pM
- EC50 [4]: 5.1 ± 1.8 pM
- EC50 [5]: < 10 pM
- EC50 [6]: < 5 pM
- EC50 [7]: < 10 pM
- EC50 [8]: < 10 pM
- EC50 [9]: 2.4 pM
- EC50 [10]: 3 pM
- EC50 [11]: 2.9 pM
- EC50 [12]: 1.8 pM
- EC50 [13]: 6.4 ± 3.1 pM
- EC50 [14]: 3 pM
- EC50 ([14]; Hepatitis C virus): < 5 pM
- EC50 [15]: < 10 pM
- EC50 [16]: 3.3 pM
- EC50 ([16]; Hepatitis C virus): < 5 pM
- EC50 [17]: 3 pM
- EC50 ([17]; Hepatitis C virus): < 5 pM
- EC50 [18]: 2.5 pM
- EC50 ([18]; Hepatitis C virus): < 5 pM
- EC50 [19]: 4.6 pM
- EC50 ([19]; Hepatitis C virus): < 5 pM
- EC50 [20]: 6.4 ± 2.8 pM
- EC50 [21]: 8.7 ± 5.5 pM
- EC50 [22]: 1.1 pM
- EC50 [23]: < 10 pM
